Measurements published in US20050245529A1 (Boehringer Ingelheim International GmbH, priority 2004, published 2005).

Molecular target: T1, hMCH-1R (Homo sapiens, UniProt Q99705)
T1 construct: expressed in transfected cells; host or cells: CHO/Galpha 16 cells, stably transfected; membranes used
Assay: MCH-1 receptor binding test
Conditions: 125I-MCH binding, membranes from CHO/Galpha 16 cells stably transfected with human hMCH-1R
Method: Membranes from CHO/Galpha 16 cells stably transfected with human hMCH-1R are resuspended using a syringe (needle 0.6×25 mm) and diluted in test buffer (50 mM HEPES, 10 mM MgCl2, 2 mM EGTA, pH 7.00; 0.1% bovine serum albumin (protease-free), 0.021% bacitracin, 1 μg/mL aprotinin, 1 μg/mL leupeptin and 1 μM phosphoramidone) to a concentration of 5 to 15 μg/mL. […] After the incubation the reaction is filtered using a cell harvester through 0.5% PEI treated fiberglass filters (GF/B, Unifilter Packard). The membrane-bound radioactivity retained on the filter is then determined after the addition of scintillator substance (Packard Microscint 20) in a measuring device (TopCount of Packard). […] The analysis of the concentration binding curve is carried out on the assumption of one receptor binding site.

T1 sequence (Q99705 whole entry): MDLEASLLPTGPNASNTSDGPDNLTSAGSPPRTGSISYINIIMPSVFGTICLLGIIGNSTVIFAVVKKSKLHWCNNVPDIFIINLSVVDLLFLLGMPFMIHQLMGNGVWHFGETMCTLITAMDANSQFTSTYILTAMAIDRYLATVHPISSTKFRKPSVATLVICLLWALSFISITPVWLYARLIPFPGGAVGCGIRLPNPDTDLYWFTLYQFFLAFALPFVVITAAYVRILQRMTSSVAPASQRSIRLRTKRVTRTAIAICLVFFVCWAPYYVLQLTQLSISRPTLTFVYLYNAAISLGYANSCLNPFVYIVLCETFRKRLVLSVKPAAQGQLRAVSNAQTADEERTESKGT

| IC50 | SMILES |
| --- | --- |
| 3.7 nM | NC(=O)C1CCN([C@H]2CCN(c3ccc(C#Cc4ccc(-c5ccc(Cl)cc5)cn4)cn3)C2)CC1 [Example 6.3, (S)-1-(1-{5-[5-(4-chlorophenyl)pyridin-2-ylethynyl]pyridin-2-yl}pyrrolidin-3-yl)piperidin-4-carboxylic acid amide] |
| 25 nM | CCCN(CC1CC1)[C@H](C)/C=C(\C)c1ccc(C#Cc2ccc(-c3ccc(Cl)cc3)cn2)cc1 [Example 15.5, ((E)-(R)-3-{4-[5-(4-chlorophenyl)pyridin-2-ylethynyl]phenyl}-1-methylbut-2-enyl)cyclopropylmethylpropylamine] |
